The record followed here is patent publication US8173693B2, “Benzenesulfonamide derivatives and pharmaceutical composition thereof” (Purzer Pharmaceutical Co., Ltd., priority 2010, dated 2012).

One assay relates to 4T1-Luc cells. Nature of the assay: In vivo evaluation, short-time treatment, mice implanted with 4T1-Luc cells. On the procedure:
GM119 (25 mg/kg) was applied to a mouse implanted with 4T1-Luc cells for a short time, and then Taxol (10 mg/kg) was applied thereto to observe the effect of GM119 on the 4T1-Luc cells.
A suspension of 4T1-Luc cells in matrigel was injected into the breast adipocyte to obtain mice implanted with luciferase tumor cells. […] When the size of the tumor cells was achieved to 200-500 mm^3, the mice were divided into 2 groups, and the number of the mice in each group is ≧5. Then, 0 or 25 mg/kg of GM119 was abdominal-injected into the mice for 5 days, wherein GM119 was dissolved in cremophor, and the volume of injection to each mouse is 50 μl. Then, 0 or 10 mg/kg of Taxol was abdominal-injected into the mice for every 2 days until death of the mice. The weight and the number of the mice were recorded every day to analyze the change on the weight and the survival time of the mice. After the drugs were applied to the mice, the size of the tumor cells in the mice was evaluated with bioluminescence every two days.

In assay [1] the test system is murine mammary carcinoma cell line 4T1-Luc cells. Kind of assay: 4T1-Luc cell survival, sulforhodamine B staining. Format: cell-based. On the procedure:
The murine mammary carcinoma cell line 4T1-Luc cells stably expressing the firefly luciferase gene under the selection of G418 was cultured in RPMI containing 10% fetal calf serum. The cells were maintained at 37° C. with 5% CO2 in air and subcultured twice weekly.
Each well of 96-well plates was seeded with 2,500 or 5,000 tumor cells, and the tumor cells were incubated in medium with 10% fetal bovine serum or without serum. The tumor cells were treated with 0, 0.01, 0.1, 1, or 10 μM of GM119 for 48 hr. Then, the tumor cells were fixed with 10% of trichloroacetic acid, washed with water, stained with sulforhodamine B. Then, the sample was washed with 1% of acetic acid, and Tris buffer was added into the sample. The absorption of the sample was determined at 515 nm with a Thermomax microplate reader, and repeated for 4 times. The absorption of the cells without drug treatment served as 100% survival, and the survival was calculated and represented by average±standard deviation %.
(Sulforhodamine B stains cellular protein and so reports cell mass.)

Assay [2] has as its system Human colorectal adenocarcinoma HT-29 cells. Nature of the assay: SRB assay. Type of assay: cell-based. Conditions: 48 hr.
The subject of assay [3] is H1299 non-small cell lung cancer. Kind of assay: SRB assay. Type of assay: cell-based. The note with it: Homo sapiens, NCI-H1299, 48 hr. On the procedure:
(§1) All cell lines were maintained in RPMI 1640 supplied with 10% fetal bovine serum into 96-well microtiter plates and maintained in a humidified chamber at 37° C. containing 5% CO2. After 24 hr, cell lines in partial wells were fixed in situ with 10% trichloroacetic acid (TCA) to represent a measurement at the time of drug addition (T0). Then, cell lines in other wells were incubated with the benzenesulfonamide derivatives of the present invention for an additional 48 hr, and fixed in situ with 10% TCA to represent a measurement at the time of stopping reaction (Tx). After rinsing the plates with PBS and air-drying, 0.4% sulforhodamine B solution (weight per volume in 1% acetic acid) was added to each well and the plates were incubated for 10 min at room temperature. Unbound sulforhodamine B was removed with 1% acetic acid and the plates were air-dried. Cells bound with sulforhodamine B was subsequently solubilized with 10 mM Tris base (Trizma; Sigma). Cell proliferation was determined by measuring the optical density at 515 nm using a Thermomax microplate reader (Molecular Devices, Sunnyvale, Calif.). The half-inhibition concention (GI50) of the benzenesulfonamide derivatives of the present invention was obtained from the detected optical density.

In assay [4] the test system is CL1-5 non-small cell lung cancer. Kind of assay: SRB assay. Format: cell-based. Conditions: 48 hr. On the procedure:
as §1

The subject of another assay is HeLa Cervical cancer. Kind of assay: SRB assay. Conditions: Homo sapiens, 48 hr. Type of assay: cell-based. On the procedure:
as §1

Assay [5] deals with MCF-7/ADR multidrug-resistant breast cancer. Nature of the assay: SRB assay. The note with it: Homo sapiens, NCI/ADR-RES. Format: cell-based. On the procedure:
as §1

Assay [6] concerns Human prostate carcinoma PC-3 cells. Kind of assay: SRB assay. Type of assay: cell-based. On the procedure:
(§2) Human Bladder Cancer TSGH cells, Human hepatoblastoma HepG2 cells, Human colorectal adenocarcinoma HT-29 cells, human nasopharyngeal carcinoma KB cells, Human gastric adenocarcinoma AGS cells, Human breast carcinoma MCF-7 cells, lung carcinoma A549 cells, and Human prostate carcinoma PC-3 cells were used in the preliminary cytotoxicity assays of the benzenesulfonamide derivatives of the present invention, and the inhibition activity against the tumor cells was evaluated.
as §1

Assay [7] relates to Human colorectal adenocarcinoma HT-29 cells. Nature of the assay: SRB assay. The note with it: 48 hr. Type of assay: cell-based. On the procedure: as §2, §1
This is another data set of the same source.

The subject of assay [8] is Human breast carcinoma MCF-7 cells. Kind of assay: SRB assay. Type of assay: cell-based. Conditions: MCF7, 48 hr. On the procedure:
as §2, §1

The test system of assay [9] is lung carcinoma A549 cells. Kind of assay: SRB assay. Type of assay: cell-based. The note with it: Homo sapiens, 48 hr. On the procedure:
as §2, §1

Assay [10] relates to Human gastric adenocarcinoma AGS cells. Nature of the assay: SRB assay. Format: cell-based. Conditions: 48 hr. On the procedure:
as §2, §1

The test system of assay [11] is Human hepatoblastoma HepG2 cells. Kind of assay: SRB assay. Format: cell-based. Conditions: 48 hr. On the procedure: as §2, §1
Assay [12] has as its system Human gastric adenocarcinoma AGS cells. Kind of assay: SRB assay. Format: cell-based. Conditions: 48 hr. This is another data set of the same source.
In assay [13] the test system is Human colorectal adenocarcinoma HT-29 cells. Kind of assay: MTT assay. Type of assay: cell-based. The note with it: 72 hr. A general note: Tetrazolium dyes change colour on reduction, which living cells bring about.
The subject of assay [14] is Human breast carcinoma MCF-7 cells. Kind of assay: MTT assay. Type of assay: cell-based. The note with it: MCF7, 72 hr.
Assay [15] deals with A549 non-small cell lung cancer. Kind of assay: MTT assay. Type of assay: cell-based. Conditions: Homo sapiens, 72 hr.
In assay [16] the test system is Human gastric adenocarcinoma AGS cells. Kind of assay: MTT assay. Conditions: 72 hr. Type of assay: cell-based.
The test system of assay [17] is Human hepatoblastoma HepG2 cells. Nature of the assay: SRB assay. Format: cell-based. The note with it: 48 hr. The source holds these as a separate data set.

Molecules are shown by their SMILES.

The term IC50 denotes the concentration at which inhibition is half-maximal. Read a high IC50 as lower potency. Usually GI50 stands for the concentration that inhibits growth by half. The low end stands for greater sensitivity of the cells, the high end for lower sensitivity of the cells. Turning to `COc1ccc(S(=O)(=O)Nc2cccc3c2[nH]c2c(C)ccc(C)c23)cc1` [Compound 6c, N-(5,8-Dimethyl-9H-carbazol-1-yl)-4-methoxybenzenesulfonamide], in the assay on 4T1-Luc cells (short time: GM119 25 mg/kg abdominal-injected for 5 days, then Taxol 10 mg/kg every 2 days, FIG. 2), the “survival of the mice” value is on record as “the survival of the mice can be greatly increased”. Further, the “growth of the tumor cells (bioluminescence)” value in the assay on 4T1-Luc cells (short-time treatment, GM119 25 mg/kg, Taxol 10 mg/kg) is reported as “the growth of the tumor cells can be inhibited”. Moreover, the “growth of the 4T1 cells” value in assay [1] (0.01 μM, 48 hr, medium with or without serum, FIG. 1) is “the growth of the 4T1 cells can be inhibited”. The “inhibition of the 4T1 cells” value in assay [1] (10 μM, 48 hr, FIG. 1) is “the inhibition of the 4T1 cells is apparent”. Further, the “killing of 4T1 cells (FIG. 1 legend)” value in assay [1] (in vitro assay) is “kills the murine mammary carcinoma 4T1 cell”. Besides, the half-maximal inhibitory concentration (IC50) in [2] came to 9000 nM; in assay [6] (Homo sapiens, PC-3, 48 hr), 1100 nM; in [12], 1000 nM; in assay [13], 400 nM; in assay [14], 240 nM; in assay [15] it was 1120 nM. For the same compound, the values for the IC50 in [16] and in assay [17] were 1400 nM and 1000 nM, respectively. Further, the GI50 stood at 460 nM in [3]; 260 nM in assay [4]; 190 nM in the assay with HeLa Cervical cancer; 390 nM in [5]; 610 nM in assay [6] (48 hr); 500 nM in assay [6] (Homo sapiens, PC-3, 48 h). For the same compound, the GI50 was determined as 320 nM in assay [7]; 630 nM in assay [8]; 280 nM in [9]; 600 nM in assay [10]; 70 nM in assay [11].
